Data set [1] has as its system PANC-1. Kind of data set: Antiproliferative activity against human PANC-1 cells assessed as inhibition of cell proliferation measured after 24 hrs by MTT assay. In kind it is functional, cell-based. Conditions: PANC-1, 24 h. A general note: Tetrazolium assays rely on reduction of a dye to a coloured formazan, in cell work by metabolically active cells.
The subject of data set [2] is LoVo. In words: Cell cycle arrest in human LoVo cells assessed as accumulation of cells in G0/G1 phase at 20 to 80 nM measured after 24 hrs by PI staining based flow cytometry method. Format: functional. Conditions: dose 20-80 nM. (In general: A flow cytometer gives signals particle by particle.)
For data set [3], the system named is SW-620. Kind of data set: Cell cycle arrest in human SW-620 cells assessed as decrease of cells in G2/M phase at 20 to 80 nM measured after 24 hrs by PI staining based flow cytometry method. In kind it is functional. The settings on record: dose 20-80 nM.
In data set [4] the test system is HepG2. In words: Antiproliferative activity against human HepG2 cells assessed as inhibition of cell proliferation measured after 24 hrs by MTT assay. Format: functional, cell-based. The settings on record: HepG2, 24 h.
A short description of data set [5]: Cytotoxicity against human IOSE80 cells assessed as reduction in cell viability measured after 24 hrs by MTT assay. Format: cell-based.
The nature of data set [6]: Cytotoxicity against human L02 cells assessed as reduction in cell viability measured after 24 hrs by MTT assay. In kind it is cell-based.
Data set [7] is described as follows: Cytotoxicity against human NCM460 cells assessed as reduction in cell viability measured after 24 hrs by MTT assay. Format: cell-based.
Data set [8] is described as follows: Cytotoxicity against human HPDE6c7 cells assessed as reduction in cell viability measured after 24 hrs by MTT assay. Format: functional.
Data set [9] deals with LoVo. Kind of data set: Induction of apoptosis in human LoVo cells assessed as necrotic cells at 20 nM measured after 24 hrs by Annexin V/PI staining based flow cytometry method (reference value: 1.3%). Format: functional.
Data set [10] relates to LoVo. In words: Induction of apoptosis in human LoVo cells assessed as viable cells at 40 nM measured after 24 hrs by Annexin V/PI staining based flow cytometry method (reference value: 93.5%). In kind it is functional. The settings on record: read-out: Activity.
Data set [11] concerns LoVo. In words: Induction of apoptosis in human LoVo cells assessed as early apoptotic cells at 40 nM measured after 24 hrs by Annexin V/PI staining based flow cytometry method (reference value: 1.6%). Format: functional.
The subject of data set [12] is SW-620. Kind of data set: Induction of apoptosis in human SW-620 cells assessed as early apoptotic cells at 20 nM measured after 24 hrs by Annexin V/PI staining based flow cytometry method (reference value: 1.7%). Format: functional.
For data set [13], the system named is SW-620. Kind of data set: Induction of apoptosis in human SW-620 cells assessed as viable cells at 80 nM measured after 24 hrs by Annexin V/PI staining based flow cytometry method (reference value: 94%). In kind it is functional. Conditions: read-out: Activity.
In data set [14] the test system is LoVo. In words: Inhibition of cell migration in human LoVo cells at 20 to 80 nM measured after 24 hrs by wound healing assay. In kind it is functional, cell-based. Conditions: dose 20-80 nM.
Data set [15] concerns SW-620. In words: Inhibition of cell migration in human SW-620 cells at 20 to 80 nM measured after 24 hrs by wound healing assay. Format: functional, cell-based. The settings on record: dose 20-80 nM.
The nature of data set [16]: Toxicity in Balb/c mouse xenografted with human SW-620 cells assessed as changes in body weight at 5 mg/kg, ip measured after 21 days. Conditions: in vivo, 504 h, time 21 day. In kind it is organism-based. (In xenograft studies the graft and the host belong to different species.)
In data set [17] the test system is SW-620. Kind of data set: Induction of apoptosis in human SW-620 cells assessed as increase in Bax levels at 20 to 80 nM measured after 24 hrs by Western blot assay. Format: functional, cell-based. Conditions: dose 20-80 nM.

SMILES strings stand for the structures. Activity calls are given as the source filed them. The rule behind the calls is not given here.

`CC1(C)[C@H]2CC[C@]1(C)N(Cc1cn(-c3cccc(Br)c3)nn1)C(=O)C2`: the figures for the IC50 in data set [1] and in [4] were 0.09 µM and 0.02 µM, respectively. Also, the result in [2], in [3] and in data set [17] was Active. Further, the results for the CC50 at 24 h in [5], in data set [6] and in data set [7] were 9.55 µM, 10.5 µM and 14.6 µM, respectively. Besides, the CC50 (commonly the concentration that lowers cell viability or growth by half) in [8] turned out to be 13.8 µM. Besides, the Activity in [9] was 1.9%; in [11], 3.2%; in data set [12] it was 5.1%; in [16], “Non-Toxic”. In [10], the viability at 0.04 µM came out at 89.8%. Further, the viability at 0.08 µM in data set [13] stood at 46.4%. Besides, the inhibition entry in data set [14] and in data set [15] was “Dose-Dependent Effect” each time.

For the origin of these results see ChEMBL document CHEMBL4813917, “2-((1-Phenyl-1H-1,2,3-triazol-4-yl)methyl)-2-azabicyclo[3.2.1]octan-3-one derivatives: Simplification and modification of aconitine scaffold for the discovery of novel anticancer agents” (Eur J Med Chem, 2021).
